The star is where a group is joined. Myristoyl = CCCCCCCCCCCCCC(=O)*
Tests used:
MCF7 breast cancer cells = type: cell-based, human; settings: MCF7
Excerpt: (§1) Cell lines—Human breast cancer cell lines SKBR3 [Peles E et al. EMBO J. (1993) 12(3):961-71] and MCF7 [Faigenbloom L et al., Mol Syst Biol. (2015) 11(12):845] and human glioblastoma U87 [Goldberg L et al. Cancer Res. (2006) 66(24):11709-17] cell line, as well as Rat-1 fibroblast cells and H-Ras-transformed Rat-1 cells (EJ cells) [Marom M et al. J Biol Chem. (1995) 270(38):22263-70] and human Panc-1 and MIA PaCa-2 pancreatic cell lines (Rak R et al. Oncoscience. 2014 1(1):39-48; Weisz B et al. Oncogene (1999) 18, 2579±2588) were all grown in Dulbecco's modified Eagle's medium (DMEM; Biological Industries, Beithaemek, Israel). Human colorectal cancer cell lines DLD-1 (ATTC Cat No. CCL-221), HCT-116 (ATTC Cat No. CCL-247) and LNCaP prostate cancer cells were grown in Roswell Park Memorial Institute 1640 (RPMI 1640) medium and McCoy's 5A media, respectively (Sigma-Aldrich). All media were supplemented with antibiotics and 10% heat-inactivated fetal bovine serum (FBS; Gibco). Human breast cell line MCF10A [Bott A et al. Oncotarget. (2017) 8(27):43897-43914] was grown in Dulbeco's Modified Eagle's Medium/Nutrient Mixture F-12 HAM medium (DMEM F-12 HAM; Sigma-Aldrich), supplemented with antibiotics, 5% inactivated horse serum (HS; Invitrogen), 2 mM L-glutamine (Biological Industries, Beithaemek, Israel), 0.1 μg/ml cholera toxin (Sigma-Aldrich), 0.5 μg/ml hydrocortisone (Sigma-Aldrich), 10 μg/ml insulin (Biological Industries, Beithaemek, Israel) and 2 ng/ml EGF (R&D Systems). Cells were incubated at 37° C. in 5% CO2 in air, and the medium was changed every 3-4 days. Cells were passaged in trypsin/disodium ethylenediaminetetraacetic acid (Biological Industries, Beithaemek, Israel) when confluency reached 70%. One day prior to treatment the cells were plated at ~50% confluency in a medium supplemented with 10% FBS or 5% HS, accordingly.
(§2) Methylene blue viability assay—Cells were plated in 96-wells plates at cell densities of 1.5×10^3 (EJ, DLD-1), 3×10^3 (Rat-1, HCT-116, U87), 5×10^3 (SKBR3, MCF7) and 6×10^3 (MCF10A) cells/well. […] Cell number determination was performed as described previously. IC-50 values were calculated using a non-linear regression model (logarithmic inhibitor vs. normalized response-variable slope) with the GraphPad Prism 6 software.

[1] = test system: SKBR3 breast cancer cells; type: cell-based, human
Excerpt: as §1, §2

Rat-1 fibroblast cells = assay: Methylene blue viability assay, Rat-1; type: cell-based; settings: FIG. 4C
Excerpt: Cell lines—Human breast cancer cell lines SKBR3 [Peles E et al. EMBO J. (1993) 12(3):961-71] and MCF7 [Faigenbloom L et al., Mol Syst Biol. (2015) 11(12):845] and human glioblastoma U87 [Goldberg L et al. Cancer Res. (2006) 66(24):11709-17] cell line, as well as Rat-1 fibroblast cells and H-Ras-transformed Rat-1 cells (EJ cells) [Marom M et al. J Biol Chem. (1995) 270(38):22263-70] and human Panc-1 and MIA PaCa-2 pancreatic cell lines (Rak R et al. Oncoscience. 2014 1(1):39-48; Weisz B et al. Oncogene (1999) 18, 2579±2588) were all grown in Dulbecco's modified Eagle's medium (DMEM; Biological Industries, Beithaemek, Israel). Human colorectal cancer cell lines DLD-1 (ATTC Cat No. CCL-221), HCT-116 (ATTC Cat No. CCL-247) and LNCaP prostate cancer cells were grown in Roswell Park Memorial Institute 1640 (RPMI 1640) medium and McCoy's 5A media, respectively (Sigma-Aldrich). All media were supplemented with antibiotics and 10% heat-inactivated fetal bovine serum (FBS; Gibco). Human breast cell line MCF10A [Bott A et al. Oncotarget. […]
Methylene blue viability assay—Cells were plated in 96-wells plates at cell densities of 1.5×10^3 (EJ, DLD-1), 3×10^3 (Rat-1, HCT-116, U87), 5×10^3 (SKBR3, MCF7) and 6×10^3 (MCF10A) cells/well. […] IC-50 values were calculated using a non-linear regression model (logarithmic inhibitor vs. normalized response-variable slope) with the GraphPad Prism 6 software.

EGFR (ErbB1) = assay: Immunoblotting of cell lysates, EGFR phosphorylation; type: cell-based, human; settings: DLD-1 or Panc-1 cells; 24 hours; 25 μM and 10 μM; FIGS. 13A-B
Protocol: Lysate preparation and immunoblotting—Cells were seeded at cell densities of 1.5×10^5 (DLD-1), 1.8×10^5 (HCT-116) and 2.5×10^5 (SKBR3) cells/well, treated as indicated and grown for 24 hours. Following, cells were lysed in solubilization buffer; the lysates were cleared by centrifugation and a boiling gel sample buffer was added. Proteins were resolved by SDS-polyacrylamide gel electrophoresis through 10% polyacrylamide gels, and were electrophoretically transferred to nitrocellulose membranes. Membranes were blocked in TBST buffer containing 6% milk, and blotted with primary antibodies. Following, a secondary antibody linked to horseradish peroxidase was added. Immunoreactive bands were detected with the enhanced chemiluminescence reagent Immobilon Crescendo Western HRP substrate (WBLUR0100; Merck Millipore).

nucleolin = nucleolin (Homo sapiens, UniProt P19338); assay: Western blot analysis of dissected Panc-1 tumors, nucleolin; type: in vivo; design: endogenous in cells; host or cells: Panc-1; settings: Panc-1 tumor lysates; FIGS. 10A-C
Chain of nucleolin (P19338 whole entry): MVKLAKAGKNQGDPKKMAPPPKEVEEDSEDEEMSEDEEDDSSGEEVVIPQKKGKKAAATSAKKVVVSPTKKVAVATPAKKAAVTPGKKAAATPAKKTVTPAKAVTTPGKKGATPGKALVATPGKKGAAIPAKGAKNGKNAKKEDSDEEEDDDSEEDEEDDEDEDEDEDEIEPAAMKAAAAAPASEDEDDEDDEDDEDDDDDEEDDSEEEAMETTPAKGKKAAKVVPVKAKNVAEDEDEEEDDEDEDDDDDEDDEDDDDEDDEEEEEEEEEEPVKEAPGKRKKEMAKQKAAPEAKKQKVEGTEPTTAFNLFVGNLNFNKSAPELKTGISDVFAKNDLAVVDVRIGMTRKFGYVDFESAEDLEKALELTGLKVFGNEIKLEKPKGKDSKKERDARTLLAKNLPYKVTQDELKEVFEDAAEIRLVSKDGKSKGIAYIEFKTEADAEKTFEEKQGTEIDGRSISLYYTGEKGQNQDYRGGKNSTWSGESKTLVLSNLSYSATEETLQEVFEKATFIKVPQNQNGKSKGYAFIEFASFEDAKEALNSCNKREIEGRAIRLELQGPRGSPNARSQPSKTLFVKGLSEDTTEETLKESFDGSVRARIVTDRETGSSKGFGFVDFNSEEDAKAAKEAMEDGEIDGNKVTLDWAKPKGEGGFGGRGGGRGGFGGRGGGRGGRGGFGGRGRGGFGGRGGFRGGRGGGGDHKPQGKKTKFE
Protocol: Pancreatic Tumor Growth in Nude Mice—The study was conducted according to the NIH Guidelines for Use and Care of Laboratory Animals and following the approval by Animal Care Committee of the Tel Aviv University. Nude CD1-Nu mice (25-30 g) housed in barrier facilities on a 12-h light/dark cycle one week prior to the injection of tumor cells (day zero). On day zero, 2×10^6 Panc 1 cells in 0.1 ml of PBS were implanted subcutaneously just above the right femoral joint. Tumor size was measured every 3-4 days. When the tumors were apparently seen and the calculated tumor size was 40 mm^3, the animals were divided randomly into two groups of mice (control vehicle treated and myr-NLS (SEQ ID NO: 5) treated; 8 mice per group). Treatment with the myr-NLS (SEQ ID NO: 5) was performed by intraperitoneal injection of 25 μg in 100 μl PBS (or 100 μl PBS for control mice) every day. Tumors size was measured 3 times a week. At the end of the experiment, the mice were sacrificed, and the tumors were dissected and used for further analysis.
Western blot analysis—Half of each tumor was homogenized in lysis buffer, using a Potter-Elvehjem manual homogenizer, cleared and kept at −70° C. […] Immunoreactive bands were detected with the enhanced chemiluminescence reagent (Luminata Crescendo Western HRP). Densitometric quantification analysis of the resulted images was done using ImageJ program. […]

IC50 (MCF7 breast cancer cells; 72 hours, FIGS. 4B and 4C, read-out: IC50 (cell viability)): 23.5 µM | IC50 ([1]; SKBR3, 72 hours, FIGS. 4B and 4C, read-out: IC50 (cell viability)): 20.6 µM | nucleolin levels in tumors (nucleolin): significant reduction
Substance: Myr-RRRHIVRKRTLRRLL-OH (Myristoyl-RRRHIVRKRTLRRLL-OH; SMILES CCCCCCCCCCCCCC(=O)N[C@@H](CCCNC(=N)N)C(=O)N[C@@H](CCCNC(=N)N)C(=O)N[C@@H](CCCNC(=N)N)C(=O)N[C@@H](Cc1c[nH]cn1)C(=O)N[C@H](C(=O)N[C@H](C(=O)N[C@@H](CCCNC(=N)N)C(=O)N[C@@H](CCCCN)C(=O)N[C@@H](CCCNC(=N)N)C(=O)N[C@H](C(=O)N[C@@H](CC(C)C)C(=O)N[C@@H](CCCNC(=N)N)C(=O)N[C@@H](CCCNC(=N)N)C(=O)N[C@@H](CC(C)C)C(=O)N[C@@H](CC(C)C)C(=O)O)[C@@H](C)O)C(C)C)[C@@H](C)CC) [myr-NLS]
effect on viability as compared to non-transformed MCF10 cells (MCF7 breast cancer cells; FIG. 4C): much more pronounced | viability of SKBR3 breast cancer cells ([1]; 80 μM peptide for 72 hours, FIG. 4A): significantly reduced viability | effect on viability as compared to non-transformed MCF10 cells ([1]; SKBR3, FIG. 4C): much more pronounced | viability of non-transformed Rat-1 cells (Rat-1 fibroblast cells): had no effect | levels of phosphorylated EGFR (EGFR (ErbB1)): reduced

From patent publication US20260200982A1, “HER RECEPTOR DERIVED PEPTIDES AND METHODS OF USE THEREOF” (Ramot at Tel-Aviv University Ltd., priority 2022, published 2026)
